Test results reported in ChEMBL document CHEMBL4813981, “Synthesis and in vitro antibacterial activity of new aminothiazole-oximepiperidone cephalosporins” (2021).

Tests used:
Type in all cases: functional
Klebsiella pneumoniae [1] = experiment: Antibacterial activity against Carbapenem- sensitive Klebsiella pneumoniae 17-6 overexpressing extended spectrum beta-lactamases assessed as reduction in bacterial growth
Enterobacter cloacae [2] = experiment: Antibacterial activity against Enterobacter cloacae 17-8 assessed as reduction in bacterial growth
Escherichia coli [3] = experiment: Antibacterial activity against ESBLs positive Carbapenem-sensitive Escherichia coli 17-14 assessed as reduction in bacterial growth
Escherichia coli [4] = experiment: Antibacterial activity against ESBLs negative Carbapenem-sensitive Escherichia coli 17-9 assessed as reduction in bacterial growth
Klebsiella aerogenes [5] = experiment: Antibacterial activity against Enterobacter aerogenes 17-4 assessed as reduction in bacterial growth
Klebsiella pneumoniae [6] = experiment: Antibacterial activity against Carbapenem- sensitive Klebsiella pneumoniae 17-2 overexpressing extended spectrum beta-lactamases assessed as reduction in bacterial growth
Pseudomonas aeruginosa [7] = experiment: Antibacterial activity against Carbapenem- sensitive Pseudomonas aeruginosa 17-7 assessed as reduction in bacterial growth
Klebsiella pneumoniae [8] = experiment: Antibacterial activity against Carbapenem- sensitive Klebsiella pneumoniae 17-12 overexpressing extended spectrum beta-lactamases assessed as reduction in bacterial growth
Enterobacter cloacae [9] = experiment: Antibacterial activity against Enterobacter cloacae 17-5 assessed as reduction in bacterial growth
Escherichia coli [10] = experiment: Antibacterial activity against ESBLs positive Carbapenem-sensitive Escherichia coli 17-17 assessed as reduction in bacterial growth
Escherichia coli [11] = experiment: Antibacterial activity against ESBLs positive Carbapenem-sensitive Escherichia coli 17-6 assessed as reduction in bacterial growth
Escherichia coli [12] = experiment: Antibacterial activity against ESBLs positive Carbapenem-sensitive Escherichia coli 17-18 assessed as reduction in bacterial growth
Klebsiella pneumoniae [13] = experiment: Antibacterial activity against Carbapenem- sensitive Klebsiella pneumoniae 17-8 overexpressing extended spectrum beta-lactamases assessed as reduction in bacterial growth
Klebsiella pneumoniae [14] = experiment: Antibacterial activity against ESBLs negative Carbapenem-sensitive Klebsiella pneumoniae 17-18 assessed as reduction in bacterial growth
Escherichia coli [15] = experiment: Antibacterial activity against ESBLs positive Carbapenem-sensitive Escherichia coli 17-10 assessed as reduction in bacterial growth
Pseudomonas aeruginosa [16] = experiment: Antibacterial activity against Carbapenem- resistant Pseudomonas aeruginosa 17-1 assessed as reduction in bacterial growth
Pseudomonas aeruginosa [17] = experiment: Antibacterial activity against Carbapenem- sensitive Pseudomonas aeruginosa 17-26 assessed as reduction in bacterial growth
Klebsiella pneumoniae [18] = experiment: Antibacterial activity against Carbapenem- sensitive Klebsiella pneumoniae 17-15 overexpressing extended spectrum beta-lactamases assessed as reduction in bacterial growth
Klebsiella pneumoniae [19] = experiment: Antibacterial activity against Carbapenem- resistant Klebsiella pneumoniae KR 15-7 assessed as reduction in bacterial growth
Pseudomonas aeruginosa [20] = experiment: Antibacterial activity against Carbapenem- sensitive Pseudomonas aeruginosa 17-24 assessed as reduction in bacterial growth
Enterobacter cloacae [21] = experiment: Antibacterial activity against Enterobacter cloacae 17-4 assessed as reduction in bacterial growth
Escherichia coli [22] = experiment: Antibacterial activity against ESBLs negative Carbapenem-sensitive Escherichia coli 17-1 assessed as reduction in bacterial growth
Klebsiella aerogenes [23] = experiment: Antibacterial activity against Enterobacter aerogenes 17-1 assessed as reduction in bacterial growth
Escherichia coli [24] = experiment: Antibacterial activity against ESBLs positive Carbapenem-sensitive Escherichia coli 17-8 assessed as reduction in bacterial growth
Escherichia coli [25] = experiment: Antibacterial activity against Escherichia coli NCTC 13353 assessed as reduction in bacterial growth
Pseudomonas aeruginosa [26] = experiment: Antibacterial activity against Pseudomonas aeruginosa ATCC 27853 assessed as reduction in bacterial growth
Klebsiella aerogenes [27] = experiment: Antibacterial activity against Enterobacter aerogenes 15-7 assessed as reduction in bacterial growth
Klebsiella pneumoniae [28] = experiment: Antibacterial activity against ESBLs negative Carbapenem-sensitive Klebsiella pneumoniae 17-20 assessed as reduction in bacterial growth
Klebsiella aerogenes [29] = experiment: Antibacterial activity against Enterobacter aerogenes 17-5 assessed as reduction in bacterial growth
Escherichia coli [30] = experiment: Antibacterial activity against ESBLs positive Carbapenem-sensitive Escherichia coli 17-2 assessed as reduction in bacterial growth
Klebsiella pneumoniae [31] = experiment: Antibacterial activity against ESBLs negative Carbapenem-sensitive Klebsiella pneumoniae 17-17 assessed as reduction in bacterial growth
Klebsiella pneumoniae [32] = experiment: Antibacterial activity against Carbapenem- resistant Klebsiella pneumoniae KR 15-10 assessed as reduction in bacterial growth
Pseudomonas aeruginosa [33] = experiment: Antibacterial activity against Carbapenem- resistant Pseudomonas aeruginosa 17-8 assessed as reduction in bacterial growth
Klebsiella pneumoniae [34] = experiment: Antibacterial activity against Klebsiella pneumoniae ATCC BAA-1705 assessed as reduction in bacterial growth
Klebsiella pneumoniae [35] = experiment: Antibacterial activity against Carbapenem- sensitive Klebsiella pneumoniae 17-14 overexpressing extended spectrum beta-lactamases assessed as reduction in bacterial growth
Klebsiella pneumoniae [36] = experiment: Antibacterial activity against ESBLs negative Carbapenem-sensitive Klebsiella pneumonia 15-2 assessed as reduction in bacterial growth
Pseudomonas aeruginosa [37] = experiment: Antibacterial activity against Carbapenem- resistant Pseudomonas aeruginosa 17-5 assessed as reduction in bacterial growth
Klebsiella aerogenes [38] = experiment: Antibacterial activity against Enterobacter aerogenes 15-3 assessed as reduction in bacterial growth
Acinetobacter baumannii [39] = experiment: Antibacterial activity against Carbapenem- resistant Acinetobacter baumannii 17-11 assessed as reduction in bacterial growth
Pseudomonas aeruginosa [40] = experiment: Antibacterial activity against Carbapenem- sensitive Pseudomonas aeruginosa 17-21 assessed as reduction in bacterial growth
Acinetobacter baumannii [41] = experiment: Antibacterial activity against Carbapenem- resistant Acinetobacter baumannii 17-13 assessed as reduction in bacterial growth
Klebsiella pneumoniae [42] = experiment: Antibacterial activity against Carbapenem- resistant Klebsiella pneumoniae KR 15-6 assessed as reduction in bacterial growth
Pseudomonas aeruginosa [43] = experiment: Antibacterial activity against Carbapenem- sensitive Pseudomonas aeruginosa 17-10 assessed as reduction in bacterial growth
Klebsiella aerogenes [44] = experiment: Antibacterial activity against Enterobacter aerogenes 15-6 assessed as reduction in bacterial growth
Klebsiella pneumoniae [45] = experiment: Antibacterial activity against Carbapenem- resistant Klebsiella pneumoniae KR 15-13 assessed as reduction in bacterial growth
Escherichia coli [46] = experiment: Antibacterial activity against Escherichia coli ATCC 25922 assessed as reduction in bacterial growth
Klebsiella pneumoniae [47] = experiment: Antibacterial activity against Carbapenem- resistant Klebsiella pneumoniae KR 15-12 assessed as reduction in bacterial growth
Acinetobacter baumannii [48] = experiment: Antibacterial activity against Carbapenem- resistant Acinetobacter baumannii 17-10 assessed as reduction in bacterial growth
Klebsiella pneumoniae [49] = experiment: Antibacterial activity against Carbapenem- sensitive Klebsiella pneumoniae 17-9 overexpressing extended spectrum beta-lactamases assessed as reduction in bacterial growth
Klebsiella aerogenes [50] = experiment: Antibacterial activity against Enterobacter aerogenes 17-3 assessed as reduction in bacterial growth
Enterobacter cloacae [51] = experiment: Antibacterial activity against Enterobacter cloacae 17-10 assessed as reduction in bacterial growth
Klebsiella pneumoniae [52] = experiment: Antibacterial activity against Carbapenem- sensitive Klebsiella pneumoniae 17-4 overexpressing extended spectrum beta-lactamases assessed as reduction in bacterial growth
Escherichia coli [53] = experiment: Antibacterial activity against ESBLs positive Carbapenem-sensitive Escherichia coli 17-11 assessed as reduction in bacterial growth
Escherichia coli [54] = experiment: Antibacterial activity against ESBLs negative Carbapenem-sensitive Escherichia coli 17-7 assessed as reduction in bacterial growth

Measured: MIC

CC(C)(O/N=C(\C(=O)N[C@@H]1C(=O)N2C(C(=O)[O-])=C(C[n+]3ccccc3)CS[C@H]12)c1csc(N)n1)C(=O)O [CEFTAZIDIME]
32 µg/mL: Escherichia coli [10] | Escherichia coli [11] | Pseudomonas aeruginosa [16] | Klebsiella pneumoniae [18] | Pseudomonas aeruginosa [33] | Acinetobacter baumannii [39] | Klebsiella pneumoniae [42] | Acinetobacter baumannii [48] | Escherichia coli [53]
> 64 µg/mL: Klebsiella pneumoniae [13] | Klebsiella pneumoniae [19] | Klebsiella pneumoniae [32] | Klebsiella aerogenes [38] | Acinetobacter baumannii [41] | Klebsiella pneumoniae [52]
8 µg/mL: Klebsiella pneumoniae [1] | Klebsiella aerogenes [5] | Klebsiella aerogenes [23] | Pseudomonas aeruginosa [43] | Klebsiella aerogenes [44]
16 µg/mL: Escherichia coli [3] | Escherichia coli [24] | Klebsiella aerogenes [27] | Klebsiella aerogenes [29]
2 µg/mL: Klebsiella pneumoniae [6] | Escherichia coli [12] | Pseudomonas aeruginosa [20] | Escherichia coli [30] | Klebsiella pneumoniae [35]
1 µg/mL: Pseudomonas aeruginosa [17] | Pseudomonas aeruginosa [26] | Enterobacter cloacae [51]
0.06 µg/mL: Escherichia coli [46]
4 µg/mL: Klebsiella pneumoniae [8] | Escherichia coli [15] | Pseudomonas aeruginosa [40]
0.5 µg/mL: Escherichia coli [4] | Enterobacter cloacae [21] | Klebsiella aerogenes [50]
64 µg/mL: Enterobacter cloacae [9] | Escherichia coli [22] | Escherichia coli [25] | Klebsiella pneumoniae [34] | Pseudomonas aeruginosa [37] | Klebsiella pneumoniae [45] | Klebsiella pneumoniae [47] | Klebsiella pneumoniae [49]
0.125 µg/mL: Enterobacter cloacae [2] | Pseudomonas aeruginosa [7] | Klebsiella pneumoniae [14] | Klebsiella pneumoniae [28] | Klebsiella pneumoniae [31] | Klebsiella pneumoniae [36] | Escherichia coli [54]
